According to the NIST ThermoML archive (doi:10.1021/je050031f):
± gives the expanded uncertainty stated by the source.

How the values were obtained:
[1] = xn = mol fraction of the nth substance listed; settings: 100.8 kPa, Liquid
[2] = refractive index (Na D-line) (dimensionless); xn = mol fraction of the nth substance listed; settings: 100.8 kPa, Liquid, Standard Abbe refractometry
[3] = refractive index (Na D-line) (dimensionless); settings: 101.33 kPa, Liquid, Standard Abbe refractometry
[4] = 100.8 kPa, Liquid

CC(C)OC(C)C [diisopropyl ether] + CC1CCCCC1
[1], Capillary tube (Ostwald / Ubbelohde) method, x1 = 1
Settings	viscosity [mPa·s]
288.15 K	0.347
298.15 K	0.313
308.15 K	0.283

x1 = 1
Settings	mass density, 288.15 K [kg/m3]	mass density, 298.15 K [kg/m3]	mass density, 308.15 K [kg/m3]	refractive index, 288.15 K	refractive index, 298.15 K	refractive index, 308.15 K
[1]	729 ± 0.3	718.6 ± 0.3	707.9 ± 0.3	–	–	–
[2]	–	–	–	1.37126 ± 0.00031	1.36537 ± 0.00031	1.35954 ± 0.00031

CC1CCCCC1 [methylcyclohexane]
Settings	mass density, 288.15 K [kg/m3]	mass density, 298.15 K [kg/m3]	mass density, 308.15 K [kg/m3]	refractive index, 288.15 K	refractive index, 298.15 K	refractive index, 308.15 K	viscosity, 288.15 K [mPa·s]	viscosity, 298.15 K [mPa·s]	viscosity, 308.15 K [mPa·s]
[3]	–	–	–	1.42578 ± 0.00033	1.42053 ± 0.00033	1.41537 ± 0.00033	–	–	–
[4]	773.4 ± 0.3	765 ± 0.3	756.3 ± 0.3	–	–	–	0.784 ± 0.01	0.685 ± 0.009	0.6 ± 0.008

CC(C)OC(C)C [diisopropyl ether]
Settings	mass density, 288.15 K [kg/m3]	mass density, 298.15 K [kg/m3]	mass density, 308.15 K [kg/m3]	refractive index, 288.15 K	refractive index, 298.15 K	refractive index, 308.15 K	viscosity, 288.15 K [mPa·s]	viscosity, 298.15 K [mPa·s]	viscosity, 308.15 K [mPa·s]
[3]	–	–	–	1.37126 ± 0.00031	1.36537 ± 0.00031	1.35954 ± 0.00031	–	–	–
[4]	729 ± 0.3	718.6 ± 0.3	707.9 ± 0.3	–	–	–	0.347 ± 0.005	0.313 ± 0.005	0.283 ± 0.005

CCO [ethanol] + CC(C)OC(C)C
x2 = 0
Settings	mass density, 288.15 K [kg/m3]	mass density, 298.15 K [kg/m3]	mass density, 308.15 K [kg/m3]	refractive index, 288.15 K	refractive index, 298.15 K	refractive index, 308.15 K	viscosity, 288.15 K [mPa·s]	viscosity, 298.15 K [mPa·s]	viscosity, 308.15 K [mPa·s]
[1]	793.6 ± 0.2	785.2 ± 0.3	776.5 ± 0.3	–	–	–	1.31 ± 0.016	1.085 ± 0.013	0.906 ± 0.011
[2]	–	–	–	1.36351 ± 0.00031	1.35935 ± 0.00031	1.35504 ± 0.00031	–	–	–

CCO [ethanol]
Settings	mass density, 288.15 K [kg/m3]	mass density, 298.15 K [kg/m3]	mass density, 308.15 K [kg/m3]	refractive index, 288.15 K	refractive index, 298.15 K	refractive index, 308.15 K	viscosity, 288.15 K [mPa·s]	viscosity, 298.15 K [mPa·s]	viscosity, 308.15 K [mPa·s]
[3]	–	–	–	1.36351 ± 0.00031	1.35935 ± 0.00031	1.35504 ± 0.00031	–	–	–
[4]	793.6 ± 0.2	785.2 ± 0.3	776.5 ± 0.3	–	–	–	1.31 ± 0.016	1.085 ± 0.013	0.906 ± 0.011

CCO [ethanol] + CC1CCCCC1
x1 = 1
Settings	mass density, 288.15 K [kg/m3]	mass density, 298.15 K [kg/m3]	mass density, 308.15 K [kg/m3]	refractive index, 288.15 K	refractive index, 298.15 K	refractive index, 308.15 K	viscosity, 288.15 K [mPa·s]	viscosity, 298.15 K [mPa·s]	viscosity, 308.15 K [mPa·s]
[1]	793.6 ± 0.2	785.2 ± 0.3	776.5 ± 0.3	–	–	–	1.31 ± 0.016	1.085 ± 0.013	0.906 ± 0.011
[2]	–	–	–	1.36351 ± 0.00031	1.35935 ± 0.00031	1.35504 ± 0.00031	–	–	–
